# In patent publication US8828992B2, “Substituted azole derivatives, pharmaceutical composition containing the derivatives, and method for treating Parkinson's disease using the same” (priority 2009, dated 2014):
# Like-named read-outs stand apart in the source and are kept apart here.
# Biological target: T1, Monoamineoxidase B type human-derived enzyme (Homo sapiens, UniProt P27338)
# T1 sequence (P27338 1-520): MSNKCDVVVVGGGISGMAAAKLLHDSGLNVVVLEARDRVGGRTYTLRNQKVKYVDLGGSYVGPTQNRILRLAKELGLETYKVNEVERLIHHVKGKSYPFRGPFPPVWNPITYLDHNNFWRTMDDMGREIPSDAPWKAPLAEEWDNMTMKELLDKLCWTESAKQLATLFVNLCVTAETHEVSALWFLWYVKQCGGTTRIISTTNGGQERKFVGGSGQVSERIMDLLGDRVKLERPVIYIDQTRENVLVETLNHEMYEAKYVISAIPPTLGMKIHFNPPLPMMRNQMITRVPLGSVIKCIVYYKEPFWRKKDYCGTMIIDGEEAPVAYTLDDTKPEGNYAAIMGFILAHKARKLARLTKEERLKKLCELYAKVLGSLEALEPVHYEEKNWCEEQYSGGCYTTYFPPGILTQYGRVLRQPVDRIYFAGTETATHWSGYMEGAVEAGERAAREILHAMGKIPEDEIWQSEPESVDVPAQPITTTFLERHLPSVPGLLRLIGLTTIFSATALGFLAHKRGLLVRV
# Assay: Inhibitory effects on the activity of MAO-B (Amplex Red fluorescence, benzylamine substrate)
# Assay type: biochemical
# Settings: for inhibition at 0.01 µM: read-out: Inhibitory effects (%) on the activity of MAO-B
# Procedure: Monoamineoxidase A or B type human-derived enzyme (5 mg/ml) was each diluted with 0.05 M sodium phosphate buffer (pH 7.4) to yield a dilution of 1:200, and then 100 μl of an enzyme buffer containing 2 μl of a compound 1 solution at the corresponding concentration was placed in a test plate (flat-bottom) and incubated for 30 minutes.
# 100 μl of a working buffer containing 400 μM of Amplex Red reagent, 2 U/ml horseradish peroxidase, and 2 mM substrate (tyramine for MAO-A and benzylamine for MAO-B) in 0.05 M sodium phosphate buffer (pH 7.4) was mixed with a pre-incubated enzyme buffer at 1:1 and measured using fluorescence (EX: 563 nm & EM: 587 nm) for 30 minutes.
Compound,inhibition at 0.01 µM (treatment concentration 10 nM),further results
3-[4-(3-chloro-benzyloxy)-phenyl]-isoxazol-5-ylmethyl ester [Example 20],–,Inhibitory effects (%) on the activity of MAO-B (treatment concentration 10 nM): 96.2%
3-[4-(4-methyl-benzyloxy)-phenyl]-isoxazol-5-ylmethyl ester [Example 28],–,Inhibitory effects (%) on the activity of MAO-B (treatment concentration 10 nM): 87.4%
"NC(=O)OCc1nc(-c2ccc(OCc3ccccc3)cc2)ns1 [Example 4, carbamic acid 3-(4-benzyloxy-phenyl)-[1,2,4]thiadiazol-5-ylmethyl ester]",–,inhibition at 0.01 µM: 92%
"NC(=O)OCc1cc(-c2ccc(OCc3ccccc3)cc2Cl)no1 [Example 5, carbamic acid 3-(4-benzyloxy-2-chloro-phenyl)-isoxazol-5-ylmethyl ester]",88.3%,–
"NC(=O)OCc1cc(-c2ccc(OCc3ccccc3)c(Cl)c2)no1 [Example 7, carbamic acid 3-(4-benzyloxy-3-chloro-phenyl)-isoxazol-5-ylmethyl ester]",75.9%,–
"NC(=O)OCc1cc(-c2ccc(OCc3ccccc3)c(F)c2)no1 [Example 8, carbamic acid 3-(4-benzyloxy-3-fluoro-phenyl)-isoxazol-5-ylmethyl ester]",72.7%,–
"CC(Oc1ccc(-c2cc(COC(N)=O)on2)cc1)c1ccccc1 (stereo not drawn) [Example 10, carbamic acid 3-[4-(1-phenyl-ethoxy)-phenyl]-isoxazol-5-ylmethyl ester]",98.2%,–
"NC(=O)OCc1cc(-c2ccc(OCc3ccc(F)cc3)cc2)no1 [Example 13, carbamic acid 3-[4-(4-fluoro-benzyloxy)-phenyl]-isoxazol-5-ylmethyl ester]",102%,–
"NC(=O)OCc1cc(-c2ccc(OCc3cccc(F)c3F)cc2)no1 [Example 15, carbamic acid 3-[4-(2,3-difluoro-benzyloxy)-phenyl]-isoxazol-5-ylmethyl ester]",96.2%,–
"NC(=O)OCc1cc(-c2ccc(OCc3cc(F)cc(F)c3)cc2)no1 [Example 16, carbamic acid 3-[4-(3,5-difluoro-benzyloxy)-phenyl]-isoxazol-5-ylmethyl ester]",96.5%,–
"NC(=O)OCc1cc(-c2ccc(OCc3ccc(F)c(F)c3)cc2)no1 [Example 17, carbamic acid 3-[4-(3,4-difluoro-benzyloxy)-phenyl]-isoxazol-5-ylmethyl ester]",96.8%,–
"NC(=O)OCc1cc(-c2ccc(OCc3c(F)cc(F)cc3F)cc2)no1 [Example 18, carbamic acid 3-[4-(2,4,6-trifluoro-benzyloxy)-phenyl]-isoxazol-5-ylmethyl ester]",91.5%,–
"NC(=O)OCc1cc(-c2ccc(OCc3cccc(C(F)(F)F)c3)cc2)no1 [Example 19, carbamic acid 3-[4-(3-trifluoromethyl-benzyloxy)-phenyl]-isoxazol-5-ylmethyl ester]",94.2%,–
"NC(=O)OCc1cc(-c2ccc(OCc3ccccc3Cl)cc2)no1 [Example 21, carbamic acid 3-[4-(2-chloro-benzyloxy)-phenyl]-isoxazol-5-ylmethyl ester]",92.9%,–
"NC(=O)OCc1cc(-c2ccc(OCc3ccc(Cl)cc3)cc2)no1 [Example 22, carbamic acid 3-[4-(4-chloro-benzyloxy)-phenyl]-isoxazol-5-ylmethyl ester]",86%,–
"NC(=O)OCc1cc(-c2ccc(OCc3c(Cl)cccc3Cl)cc2)no1 [Example 23, carbamic acid 3-[4-(2,6-dichlorobenzyloxy)-phenyl]-isoxazol-5-ylmethyl ester]",92.7%,–
"NC(=O)OCc1cc(-c2ccc(OCc3cc(Cl)ccc3Cl)cc2)no1 [Example 24, carbamic acid 3-[4-(2,5-di-chloro-benzyloxy)-phenyl]-isoxazol-5-ylmethyl ester]",83.3%,–
"NC(=O)OCc1cc(-c2ccc(OCc3cc(F)ccc3Cl)cc2)no1 [Example 25, carbamic acid 3-[4-(2-chloro-5-fluoro-benzyloxy)-phenyl]-isoxazol-5-ylmethyl ester]",83.2%,–
"NC(=O)OCc1cc(-c2ccc(OCc3cccc([N+](=O)[O-])c3)cc2)no1 [Example 26, carbamic acid 3-[4-(3-nitro-benzyloxy)-phenyl]-isoxazol-5-ylmethyl ester]",87.3%,–
"COC(=O)c1ccc(COc2ccc(-c3cc(COC(N)=O)on3)cc2)cc1 [Example 27, 4-[4-(5-carbamoyloxymethyl-isoxazol-3-yl)-phenoxymethyl]-benzoic acid methyl ester]",75.2%,–

Compound,inhibition at 0.01 µM (treatment concentration 10 nM),further results
"Cc1ccccc1COc1ccc(-c2cc(COC(N)=O)on2)cc1 [Example 29, carbamic acid 3-[4-(2-methyl-benzyloxy)-phenyl]-isoxazol-5-ylmethyl ester]",80.3%,–
"COc1cccc(COc2ccc(-c3cc(COC(N)=O)on3)cc2)c1 [Example 30, Carbamic acid 3-[4-(3-methoxy-benzyloxy)-phenyl]-isoxazol-5-ylmethyl ester]",90.2%,–
"NC(=O)OCc1cc(-c2ccc(OCc3cccc(C(F)(F)F)c3)cc2)no1 [Example 31, Carbamic acid 3-[4-(3-trifluoromethyl-benzyloxy)-phenyl]-isoxazol-5-ylmethyl ester]",–,inhibition at 0.1 µM (treatment concentration 100 nM): 96.2%
"CC(C)c1ccc(COc2ccc(-c3cc(COC(N)=O)on3)cc2)cc1 [Example 32, Carbamic acid 3-[4-(4-isopropyl-benzyloxy)-phenyl]-isoxazol-5-ylmethyl ester]",84.4%,–
"NC(=O)OCc1cc(-c2ccc(OCc3cccc(C=O)c3)cc2)no1 [Example 35, carbamic acid 3-[4-(3-formyl-benzyloxy)-phenyl]-isoxazol-5-ylmethyl ester]",90.4%,–
"NC(=O)OCc1cc(-c2ccc(OCc3ccc(C=O)cc3)cc2)no1 [Example 36, carbamic acid 3-[4-(4-formyl-benzyloxy)-phenyl]-isoxazol-5-ylmethyl ester]",90.1%,–
"CCCOc1ccc(-c2cc(COC(N)=O)on2)cc1 [Example 42, carbamic acid 3-(4-propoxy-phenyl)-isoxazol-5-ylmethyl ester]",–,inhibition at 0.01 µM: 85.3%
"CCCCCOc1ccc(-c2cc(COC(N)=O)on2)cc1 [Example 44, carbamic acid 3-(4-pentoxy-phenyl)-isoxazol-5-ylmethyl ester]",–,inhibition at 0.01 µM: 74.3%
"CCOC(=O)COc1ccc(-c2cc(COC(N)=O)on2)cc1 [Example 47, [4-(5-carbamoyloxymethyl-isoxazol-3-yl)-phenoxy]-acetic acid ethyl ester]",–,inhibition at 0.01 µM: 41.2%
"NC(=O)OCCCOc1ccc(-c2cc(COC(N)=O)on2)cc1 [Example 52, carbamic acid 3-[4-(5-carbamoyloxymethyl-isoxazol-3-yl)-phenoxy]-propyl ester]",–,inhibition at 0.01 µM: 26.6%
"NC(=O)OCc1cc(-c2ccc(OCCCCO)cc2)no1 [Example 57, carbamic acid 3-[4-(4-hydroxy-butoxy)-phenyl]-isoxazol-5-ylmethyl ester]",–,inhibition at 0.01 µM: 25%
"NC(=O)OCc1cc(-c2ccc(OCCCC(F)(F)F)cc2)no1 [Example 59, carbamic acid 3-[4-(4,4,4-trifluoro-butoxy)-phenyl]-isoxazol-5-ylmethyl ester]",–,inhibition at 0.01 µM: 97.4%
"NC(=O)OCc1cc(-c2ccc(OCc3nc4ccccc4s3)cc2)no1 [Example 64, Carbamic acid 3-[4-(benzothiazol-2-ylmethoxy)-phenyl]-isoxazol-5-ylmethyl ester]",32.8%,–
"COc1c(C)cc(COc2ccc(-c3cc(COC(N)=O)on3)cc2)nc1C [Example 68, Carbamic acid 3-[4-(5-methoxy-4,6-dimethyl-pyridin-2-ylmethoxy)-phenyl]-isoxazol-5-ylmethyl ester]",63.4%,–
"NC(=O)OCc1cc(-c2ccc(OCc3ccc4ccccc4n3)cc2)no1 [Example 70, Carbamic acid 3-[4-(quinolin-2-ylmethoxy)-phenyl]-isoxazol-5-ylmethyl ester]",27.1%,–
"COC(=O)c1ccc(COc2ccc(-c3cc(COC(N)=O)on3)cc2)o1 [Example 73, 5-[4-(5-carbamoyloxymethyl-isoxazol-3-yl)-phenoxymethyl]-furan-2-carboxylic acid methyl ester]",58.1%,–
"NC(=O)OCc1cc(-c2ccc(NCc3ccc(F)cc3)cc2)no1 [Example 76, Carbamic acid 3-[4-(4-fluoro-benzylamino)-phenyl]-isoxazol-5-ylmethyl ester]",87%,–
"NC(=O)OCc1cc(-c2ccc(NCc3cccc(F)c3)cc2)no1 [Example 77, Carbamic acid 3-[4-(3-fluoro-benzylamino)-phenyl]-isoxazol-5-ylmethyl ester]",77.1%,–
"NC(=O)OCc1cc(-c2ccc(NCc3ccccc3F)cc2)no1 [Example 78, Carbamic acid 3-[4-(2-fluoro-benzylamino)-phenyl]-isoxazol-5-ylmethyl ester]",84.7%,–
